Results reported in DBAASP.
Converted amounts (≈) assume the structure as drawn.

Key:
Experiment in all cases: ≥ marks a high value that may be exact or a test limit, other limits are often not marked, values filed in µg/mL are converted to µM
[1] = system: Salmonella enterica subsp. enterica serovar Typhimurium ATCC 700931
[2] = system: Pseudomonas aeruginosa ATCC 10145
[3] = system: Staphylococcus epidermidis ATCC 14990
[4] = system: Staphylococcus aureus ATCC 27660
Escherichia coli D31 = system: Escherichia coli D31
[5] = system: Candida tropicalis IOC 4560
[6] = system: Enterobacter cloacae beta-12
Micrococcus luteus A270 = system: Micrococcus luteus A270
[7] = system: Staphylococcus epidermidis ATCC 12228
Candida albicans MDM8 = system: Candida albicans MDM8
[8] = system: Staphylococcus aureus ATCC 29213
[9] = system: Serratia marcescens ATCC 4112
[10] = system: Bacillus megaterium ATCC 10778
Escherichia coli SBS 363 = system: Escherichia coli SBS 363
[11] = system: Escherichia coli ATCC 25922
[12] = system: Pseudomonas aeruginosa ATCC 9027
[13] = system: Pseudomonas aeruginosa ATCC 27853
[14] = system: Staphylococcus aureus AB94004
[15] = system: Staphylococcus aureus AB6538
Escherichia coli AB94012 = system: Escherichia coli AB94012
[16] = system: Staphylococcus aureus SH1000
[17] = system: Staphylococcus aureus VRSA10
[18] = system: Klebsiella pneumoniae ATCC BAA-2146
[19] = system: Streptococcus pneumoniae ATCC 700677
[20] = system: Staphylococcus aureus VRSA1
[21] = system: Staphylococcus aureus ATCC 43300
[22] = system: Staphylococcus aureus NRS 1
[23] = system: Klebsiella pneumoniae ATCC 700603
[24] = system: Acinetobacter baumannii ATCC 19606
[25] = system: Pseudomonas aeruginosa FADDI-PA070
[26] = system: Staphylococcus aureus NRS 17
[27] = system: Enterococcus faecalis NCTC 12697
[28] = system: Staphylococcus aureus NCTC 12493
[29] = system: Candida albicans NCTC 1467
[30] = system: Staphylococcus aureus NCTC 10788
[31] = system: Escherichia coli NCTC 10418
[32] = system: Klebsiella pneumoniae ATCC 43816
[33] = system: Staphylococcus aureus USA 300 LAC
[34] = system: Klebsiella pneumoniae ATCC 13883

## C[C@H](N)C(=O)N[C@@H](Cc1ccccc1)C(=O)N[C@@H](Cc1c[nH]c2ccccc12)C(=O)N[C@@H](CCCCN)C(=O)N[C@@H](CCCCN)C(=O)N[C@@H](Cc1ccccc1)C(=O)N[C@@H](Cc1ccccc1)C(=O)N[C@@H](CCCCN)C(=O)N[C@@H](CCCCN)C(=O)N[C@@H](Cc1ccccc1)C(=O)N[C@@H](Cc1ccccc1)C(=O)N[C@@H](CCCCN)C(=O)N[C@@H](CO)C(=O)N[C@@H](C)C(=O)N[C@@H](CCCCN)C(=O)N[C@@H](CCCCN)C(=O)N[C@@H](Cc1ccccc1)C(=O)NCC(=O)O [AFWKKFFKKFFKSAKKFG]
[1]
  MIC: 1.88 µM (≈ 4.27 µg/mL)
[2]
  MIC: 1.88 µM (≈ 4.27 µg/mL)
[3]
  MIC: 0.94 µM (≈ 2.13 µg/mL)
[4]
  MIC: 1.88 µM (≈ 4.27 µg/mL)
Escherichia coli D31
  MIC: 1.88 µM (≈ 4.27 µg/mL)

## CC(C)C[C@H](NC(=O)[C@H](C)NC(=O)CNC(=O)[C@H](CC(C)C)NC(=O)[C@@H](N)Cc1ccccc1)C(=O)N[C@@H](Cc1c[nH]c2ccccc12)C(=O)N[C@@H](CC(N)=O)C(=O)N[C@H](C(=O)N[C@@H](CCCCN)C(=O)N[C@@H](CCCCN)C(=O)N[C@@H](CO)C(=O)N[C@H](C(=O)N[C@@H](Cc1ccccc1)C(N)=O)C(C)C)C(C)C [FLGALWNVKKSVF]
[5]
  MIC: ≥ 50 µM
[6]
  MIC: ≥ 50 µM
Micrococcus luteus A270
  MIC: ≥ 50 µM
[7]
  MIC: > 50 µM
Candida albicans MDM8
  MIC: ≥ 50 µM
[8]
  MIC: > 50 µM
[9]
  MIC: ≥ 50 µM
[10]
  MIC: ≥ 50 µM
Escherichia coli SBS 363
  MIC: ≥ 50 µM

## CC[C@H](C)[C@H](NC(=O)[C@H](CO)NC(=O)[C@@H]1CCCN1C(=O)[C@H](CC(C)C)NC(=O)[C@@H](NC(=O)[C@H](CO)NC(=O)CNC(=O)[C@H](CC(C)C)NC(=O)[C@@H](NC(=O)[C@H](CO)NC(=O)CNC(=O)[C@H](CC(C)C)NC(=O)[C@H](CC(C)C)NC(=O)CNC(=O)[C@H](CC(C)C)NC(=O)[C@@H](N)Cc1ccccc1)C(C)C)C(C)C)C(=O)N[C@@H](Cc1ccccc1)C(=O)N[C@@H](CCCCN)C(N)=O [FLGLLGSVLGSVLPSIFK]
[11]
  MIC: > 54.1 µM
[12]
  MIC: > 54.1 µM
[13]
  MIC: > 54.1 µM
[14]
  MIC: 6.77 µM (≈ 12.5 µg/mL)
[15]
  MIC: 6.77 µM (≈ 12.5 µg/mL)
Escherichia coli AB94012
  MIC: ≥ 54.1 µM

## CC(C)C[C@H](NC(=O)[C@H](CC(C)C)NC(=O)[C@H](CCCCN)NC(=O)[C@H](CC(C)C)NC(=O)[C@H](CC(C)C)NC(=O)[C@H](CCCCN)NC(=O)[C@H](CCCCN)NC(=O)[C@H](CC(C)C)NC(=O)[C@H](CC(C)C)NC(=O)[C@H](CCCCN)NC(=O)[C@H](CC(C)C)NC(=O)[C@H](CC(C)C)NC(=O)[C@@H](N)CCCCN)C(=O)NCC(N)=O [KLLKLLKKLLKLLG]
[16]
  MIC: ≥ 100 µM

## CC[C@H](C)[C@H](NC(=O)[C@@H](N)CC(C)C)C(=O)NCC(=O)N[C@@H](CC(C)C)C(=O)N[C@H](C(=O)N[C@@H](CO)C(=O)N[C@@H](CCCCN)C(=O)NCC(=O)N[C@H](C(=O)N[C@H]1CSSC[C@@H](C(=O)N[C@@H](CCCCN)C(=O)N[C@@H](CCCCN)C(=O)N[C@H](C(=O)N[C@@H](CC(C)C)C(=O)N[C@@H](CCCCN)C(=O)N[C@@H](CCC(N)=O)C(N)=O)C(C)C)NC(=O)[C@H](C(C)C)NC(=O)[C@H]([C@@H](C)O)NC(=O)[C@H](CCCCN)NC(=O)[C@H](C(C)C)NC(=O)[C@H](CC(C)C)NC(=O)[C@H](C(C)C)NC1=O)[C@@H](C)O)C(C)C [LIGLVSKGTCVLVKTVCKKVLKQ]
[11]
  MIC: > 9.6 µM
[17]
  MIC: 9.6 µM (≈ 23.6 µg/mL)
[18]
  MIC: 9.6 µM (≈ 23.6 µg/mL)
[19]
  MIC: 9.6 µM (≈ 23.6 µg/mL)
[20]
  MIC: 9.6 µM (≈ 23.6 µg/mL)
[13]
  MIC: > 9.6 µM
[21]
  MIC: > 9.6 µM
[22]
  MIC: 9.6 µM (≈ 23.6 µg/mL)
[23]
  MIC: > 9.6 µM
[24]
  MIC: > 9.6 µM
[25]
  MIC: 9.6 µM (≈ 23.6 µg/mL)
[26]
  MIC: 9.6 µM (≈ 23.6 µg/mL)

## CSCC[C@H](NC(=O)[C@H](CCC(=O)O)NC(=O)[C@H](CCCCN)NC(=O)[C@H](CC(C)C)NC(=O)[C@H](CCCCN)NC(=O)CNC(=O)[C@H](Cc1c[nH]c2ccccc12)NC(=O)[C@H](CC(C)C)NC(=O)[C@@H](N)CO)C(=O)N[C@@H](CC(C)C)C(=O)N[C@@H](C)C(=O)N[C@@H](CCCCN)C(=O)N[C@@H](C)C(=O)NCC(=O)N[C@@H](CCCCN)C(=O)N[C@@H](C)C(=O)N[C@H](C(=O)N[C@@H](C)C(=O)N[C@@H](CC(N)=O)C(=O)N[C@@H](C)C(=O)N[C@H](C(=O)N[C@@H](CC(N)=O)C(=O)NCC(=O)N[C@@H](CC(C)C)C(=O)N[C@@H](C)C(=O)N[C@@H](CC(N)=O)C(=O)N[C@@H](CCC(N)=O)C(N)=O)C(C)C)C(C)C [SLWGKLKEMLAKAGKAVANAVNGLANQ]
[27]
  MIC: 8 µM (≈ 22.3 µg/mL)
[28]
  MIC: 8 µM (≈ 22.3 µg/mL)
[29]
  MIC: 16 µM (≈ 44.5 µg/mL)
[13]
  MIC: 32 µM (≈ 89 µg/mL)
[30]
  MIC: 8 µM (≈ 22.3 µg/mL)
[31]
  MIC: 8 µM (≈ 22.3 µg/mL)
[32]
  MIC: 8 µM (≈ 22.3 µg/mL)

## CC[C@H](C)[C@H](NC(=O)[C@H](CCCCN)NC(=O)[C@H](CCCN=C(N)N)NC(=O)[C@H](CC(C)C)NC(=O)[C@H](Cc1c[nH]c2ccccc12)NC(=O)[C@H](Cc1c[nH]c2ccccc12)NC(=O)[C@@H](N)Cc1c[nH]c2ccccc12)C(=O)N[C@@H](Cc1c[nH]c2ccccc12)C(N)=O [WWWLRKIW]
[11]
  MIC: 8.8 µM (≈ 11.2 µg/mL)
[33]
  MIC: 3.1 µM (≈ 3.94 µg/mL)
[34]
  MIC: 12.5 µM (≈ 15.9 µg/mL)
